Source: paper PMC11349956 (EJNMMI Radiopharmacy and Chemistry, 2024)
Structures can show the parent of a compound that is named as a salt.

Experiments:
[1] = rat striatum, 18F-LBT-999, ref Sérrière et al. [2014]; cited from earlier work
DAT = DAT (Rattus norvegicus, UniProt P23977); type: in vivo; details: GBR12909 12.5 mg/kg i.p. 15 min before LBT-999 0.02 mg/kg i.v.
Sequence of DAT (P23977 whole entry): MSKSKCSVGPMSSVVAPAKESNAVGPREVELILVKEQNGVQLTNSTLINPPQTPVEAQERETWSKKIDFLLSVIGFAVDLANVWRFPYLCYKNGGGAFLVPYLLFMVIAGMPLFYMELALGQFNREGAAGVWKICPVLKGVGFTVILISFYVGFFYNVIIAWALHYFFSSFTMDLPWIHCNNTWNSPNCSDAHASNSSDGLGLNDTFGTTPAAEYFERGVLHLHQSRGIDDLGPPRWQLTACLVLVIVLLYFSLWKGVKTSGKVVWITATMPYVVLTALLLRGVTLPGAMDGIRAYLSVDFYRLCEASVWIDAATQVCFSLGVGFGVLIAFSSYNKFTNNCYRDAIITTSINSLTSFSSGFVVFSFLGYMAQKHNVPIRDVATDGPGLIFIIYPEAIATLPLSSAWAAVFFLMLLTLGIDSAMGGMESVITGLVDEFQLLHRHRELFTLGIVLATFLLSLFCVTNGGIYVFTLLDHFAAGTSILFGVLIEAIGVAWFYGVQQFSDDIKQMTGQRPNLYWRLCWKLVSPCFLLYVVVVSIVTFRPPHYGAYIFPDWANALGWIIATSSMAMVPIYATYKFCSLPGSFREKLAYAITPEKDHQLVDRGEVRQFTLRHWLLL

## COC(=O)[C@H]1[C@@H](c2ccc(C)cc2)C[C@@H]2CC[C@H]1N2C/C=C/C[18F] [18F-LBT-999]
[1]
  average percentage of injected doses in the striatum derived from PET studies: 2.17 ± 0.42%

## Fc1ccc(C(OCCN2CCN(CCCc3ccccc3)CC2)c2ccc(F)cc2)cc1 [GBR 12909, 1-(2-bis(4-fluorophenyl)methoxy)ethyl)-4-(3-phenylpropyl)piperazine hydrochloride]
DAT
  effect on brain binding of LBT-999: prevented any binding of LBT-999
